Assay results from ChEMBL document CHEMBL6103630, “Discovery of Novel 2,4,5-Trisubstituted Pyrimidine Derivatives as Potent and Selective FGFR Inhibitors against Gatekeeper Mutants for the Treatment of NSCLC” (J Med Chem, 2025).
The source made the active and inactive calls. The calls are words filed in the database; no cut-off is given here.

How the values were obtained:
NCI-H1581 [1] = experiment: Inhibition of AKT (unknown origin) phosphorylation in human NCI-H1581 cells at 40 nM by Western blotting analysis; format: cell-based
NCI-H1581 [2] = experiment: Inhibition of cell adhesion in human NCI-H1581 cells by crystal violet staining based analysis; format: functional; conditions: dose 10-40 nM
[3] = Toxicity in ICR mouse assessed as change in heart weight at 80 mg/kg, po measured after 7 days; format: organism-based; conditions: in vivo, 168 h, time 7 day
[4] = Toxicity in BALB/c nude mouse xenografted with human NCI-H1581 cells assessed as change in ALT level at 60 mg/kg; format: organism-based; conditions: in vivo
[5] = Toxicity in BALB/c nude mouse xenografted with human NCI-H1581 cells assessed as change in kidney weight and measured after 14 days; format: tissue-based; conditions: 336 h, time 14 day
[6] = biological target: Vascular endothelial growth factor receptor 2 (Homo sapiens) (UniProt P35968); experiment: Inhibition of VEGFR2 (unknown origin)
Vascular endothelial growth factor receptor 2 (Homo sapiens), sequence (P35968 whole entry): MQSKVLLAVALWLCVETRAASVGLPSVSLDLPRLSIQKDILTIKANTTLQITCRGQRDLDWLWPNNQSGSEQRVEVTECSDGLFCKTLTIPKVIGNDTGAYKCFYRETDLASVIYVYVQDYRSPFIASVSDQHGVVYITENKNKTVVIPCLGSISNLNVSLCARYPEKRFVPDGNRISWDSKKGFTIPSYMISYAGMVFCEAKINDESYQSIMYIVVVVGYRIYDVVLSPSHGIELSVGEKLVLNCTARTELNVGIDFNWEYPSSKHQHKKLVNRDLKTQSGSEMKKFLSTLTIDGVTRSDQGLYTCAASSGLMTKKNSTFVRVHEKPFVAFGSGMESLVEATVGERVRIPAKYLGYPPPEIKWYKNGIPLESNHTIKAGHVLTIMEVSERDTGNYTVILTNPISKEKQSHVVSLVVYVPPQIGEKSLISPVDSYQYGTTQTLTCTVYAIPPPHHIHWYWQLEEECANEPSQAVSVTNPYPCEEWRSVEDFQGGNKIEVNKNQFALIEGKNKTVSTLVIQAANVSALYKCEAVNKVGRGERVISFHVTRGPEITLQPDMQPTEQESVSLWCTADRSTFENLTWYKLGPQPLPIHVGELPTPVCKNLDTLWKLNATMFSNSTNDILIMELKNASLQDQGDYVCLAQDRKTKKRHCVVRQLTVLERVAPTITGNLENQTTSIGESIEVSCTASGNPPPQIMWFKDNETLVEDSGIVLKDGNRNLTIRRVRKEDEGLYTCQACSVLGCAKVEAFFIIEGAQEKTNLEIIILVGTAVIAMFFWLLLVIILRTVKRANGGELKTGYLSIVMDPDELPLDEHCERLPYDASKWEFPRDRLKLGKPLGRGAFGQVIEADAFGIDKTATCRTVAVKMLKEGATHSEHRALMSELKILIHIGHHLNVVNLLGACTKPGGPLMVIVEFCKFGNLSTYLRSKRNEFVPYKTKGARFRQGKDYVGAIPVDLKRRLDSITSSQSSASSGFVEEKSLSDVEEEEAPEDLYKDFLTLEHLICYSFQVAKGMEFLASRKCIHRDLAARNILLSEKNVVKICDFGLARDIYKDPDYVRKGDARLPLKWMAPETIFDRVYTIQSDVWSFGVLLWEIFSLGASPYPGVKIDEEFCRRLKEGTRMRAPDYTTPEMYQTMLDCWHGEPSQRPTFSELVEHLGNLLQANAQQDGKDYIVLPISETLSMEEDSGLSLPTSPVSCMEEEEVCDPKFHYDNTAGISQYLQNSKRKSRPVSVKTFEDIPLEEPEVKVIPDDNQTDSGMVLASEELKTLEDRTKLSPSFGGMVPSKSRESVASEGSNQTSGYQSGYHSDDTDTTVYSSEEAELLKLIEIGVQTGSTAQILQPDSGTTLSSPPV

[7] = Toxicity in BALB/c nude mouse xenografted with rat L6 cells harboring FGFR V561M mutant assessed as change in liver weight at 30 to 60 mg/kg and measured daily for 14 days; format: organism-based; conditions: in vivo, 336 h, dose 30-60 mg/kg, time 14 day
[8] = Antitumor activity against rat L6 cells harboring FGFR V561M mutant xenografted in BALB/c nude mouse assessed as tumor growth inhibition at 60 mg/kg relative to control; format: functional; conditions: read-out: TGI
[9] = Nephrotoxicity in ICR mouse assessed as change in Cr level at 80 mg/kg, po; format: toxicity, organism-based; conditions: in vivo
[10] = biological target: Fibroblast growth factor receptor 3 (Homo sapiens, UniProt P22607, V555L); experiment: Inhibition of FGFR3 V555L mutant (unknown origin) by caliper mobility shift assay
Fibroblast growth factor receptor 3 (Homo sapiens, UniProt P22607, V555L), sequence (P22607 23-806 V555L limits assumed): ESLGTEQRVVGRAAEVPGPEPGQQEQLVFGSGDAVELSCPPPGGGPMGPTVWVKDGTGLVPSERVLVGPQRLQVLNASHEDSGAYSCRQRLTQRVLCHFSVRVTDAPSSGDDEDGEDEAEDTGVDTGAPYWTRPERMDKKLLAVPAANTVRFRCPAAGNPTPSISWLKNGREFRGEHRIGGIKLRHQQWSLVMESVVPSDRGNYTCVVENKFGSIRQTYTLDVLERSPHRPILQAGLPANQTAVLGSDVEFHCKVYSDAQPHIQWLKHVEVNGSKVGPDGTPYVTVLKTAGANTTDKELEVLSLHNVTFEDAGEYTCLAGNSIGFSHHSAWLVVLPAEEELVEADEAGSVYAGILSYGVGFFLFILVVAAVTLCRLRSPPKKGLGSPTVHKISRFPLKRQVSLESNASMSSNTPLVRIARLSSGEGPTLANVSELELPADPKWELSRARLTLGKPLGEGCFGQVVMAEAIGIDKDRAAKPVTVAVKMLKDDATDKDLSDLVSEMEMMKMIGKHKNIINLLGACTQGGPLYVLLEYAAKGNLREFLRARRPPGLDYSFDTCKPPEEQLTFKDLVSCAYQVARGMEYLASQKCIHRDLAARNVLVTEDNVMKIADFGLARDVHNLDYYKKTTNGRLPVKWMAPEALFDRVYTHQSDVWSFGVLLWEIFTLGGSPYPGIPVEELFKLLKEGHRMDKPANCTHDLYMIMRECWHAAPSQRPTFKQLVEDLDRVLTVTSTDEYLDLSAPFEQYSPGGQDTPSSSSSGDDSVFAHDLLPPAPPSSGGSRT

[11] = biological target: Fibroblast growth factor receptor 2 (Homo sapiens, UniProt P21802); experiment: Binding affinity to FGFR2 (unknown origin) at 0.1 uM
Fibroblast growth factor receptor 2 (Homo sapiens, UniProt P21802), sequence (P21802 22-821 limits assumed): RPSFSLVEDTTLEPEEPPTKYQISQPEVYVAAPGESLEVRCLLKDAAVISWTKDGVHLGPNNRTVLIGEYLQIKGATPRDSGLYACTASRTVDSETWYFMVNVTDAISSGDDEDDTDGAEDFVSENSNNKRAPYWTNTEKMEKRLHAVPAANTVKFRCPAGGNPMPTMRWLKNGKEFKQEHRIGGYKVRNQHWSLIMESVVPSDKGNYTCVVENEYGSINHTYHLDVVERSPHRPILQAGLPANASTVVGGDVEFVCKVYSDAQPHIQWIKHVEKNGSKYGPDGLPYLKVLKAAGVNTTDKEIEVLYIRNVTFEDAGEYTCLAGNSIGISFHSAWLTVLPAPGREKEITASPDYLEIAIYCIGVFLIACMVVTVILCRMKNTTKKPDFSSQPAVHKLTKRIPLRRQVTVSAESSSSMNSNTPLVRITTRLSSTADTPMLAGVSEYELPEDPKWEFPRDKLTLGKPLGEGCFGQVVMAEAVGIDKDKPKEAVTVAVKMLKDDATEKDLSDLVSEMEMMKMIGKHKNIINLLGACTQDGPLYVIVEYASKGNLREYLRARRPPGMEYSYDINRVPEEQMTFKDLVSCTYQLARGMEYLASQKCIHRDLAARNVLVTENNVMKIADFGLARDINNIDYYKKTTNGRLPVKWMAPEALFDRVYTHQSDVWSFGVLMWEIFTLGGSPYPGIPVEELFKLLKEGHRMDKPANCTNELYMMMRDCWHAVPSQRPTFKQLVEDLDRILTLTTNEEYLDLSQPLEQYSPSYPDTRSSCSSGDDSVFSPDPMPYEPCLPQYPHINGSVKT

NCI-H1581 [12] = experiment: Antitumor activity against human NCI-H1581 cells xenografted in BALB/c nude mouse assessed as induction of apoptosis in tumor by H and E staining based analysis; format: functional, cell-based
[13] = Toxicity in BALB/c nude mouse xenografted with rat L6 cells harboring FGFR V561M mutant assessed as change in lung weight at 30 to 60 mg/kg and measured daily for 14 days; format: organism-based; conditions: in vivo, 336 h, dose 30-60 mg/kg, time 14 day
[14] = Toxicity in ICR mouse assessed as histopathological changes in kidney at 80 mg/kg, po by H and E staining based analysis; format: organism-based; conditions: in vivo
A549 [15] = experiment: Inhibition of colony formation in human A549 cells at 0.25 to 1.0 uM incubated for 48 hrs by crystal violet staining based assay; format: functional, cell-based; conditions: dose 0.25-1 µM
[16] = Toxicity in ICR mouse assessed as histopathological changes in liver at 80 mg/kg, po by H and E staining based analysis; format: organism-based; conditions: in vivo
NCI-H1581 [17] = experiment: Antitumor activity against human NCI-H1581 cells xenografted in BALB/c nude mouse assessed as tumor growth inhibition at 60 mg/kg relative to control; format: functional; conditions: read-out: TGI
[18] = Toxicity in ICR mouse assessed as drug tolerance at 80 mg/kg, po measured after 7 days; format: organism-based; conditions: in vivo, 168 h, time 7 day
[19] = Toxicity in BALB/c nude mouse xenografted with human NCI-H1581 cells assessed as change in body weight
[20] = biological target: Fibroblast growth factor receptor 3 (Homo sapiens, UniProt P22607); experiment: Binding affinity to FGFR3 (unknown origin) at 0.1 uM
Fibroblast growth factor receptor 3 (Homo sapiens, UniProt P22607), sequence (P22607 23-806 limits assumed): as the sequence (P22607 23-806 V555L limits assumed) above, with L533V counted along it

[21] = biological target: Fibroblast growth factor receptor 2 (Homo sapiens, UniProt P21802, V564I)
Fibroblast growth factor receptor 2 (Homo sapiens, UniProt P21802, V564I), sequence (P21802 22-821 V564I limits assumed): as the sequence (P21802 22-821 limits assumed) above, with V543I counted along it

[22] = biological target: Fibroblast growth factor receptor 4 (Homo sapiens, UniProt P22455); experiment: Inhibition of wild type FGFR4 (unknown origin) by caliper mobility shift assay
Fibroblast growth factor receptor 4, sequence (P22455 whole entry): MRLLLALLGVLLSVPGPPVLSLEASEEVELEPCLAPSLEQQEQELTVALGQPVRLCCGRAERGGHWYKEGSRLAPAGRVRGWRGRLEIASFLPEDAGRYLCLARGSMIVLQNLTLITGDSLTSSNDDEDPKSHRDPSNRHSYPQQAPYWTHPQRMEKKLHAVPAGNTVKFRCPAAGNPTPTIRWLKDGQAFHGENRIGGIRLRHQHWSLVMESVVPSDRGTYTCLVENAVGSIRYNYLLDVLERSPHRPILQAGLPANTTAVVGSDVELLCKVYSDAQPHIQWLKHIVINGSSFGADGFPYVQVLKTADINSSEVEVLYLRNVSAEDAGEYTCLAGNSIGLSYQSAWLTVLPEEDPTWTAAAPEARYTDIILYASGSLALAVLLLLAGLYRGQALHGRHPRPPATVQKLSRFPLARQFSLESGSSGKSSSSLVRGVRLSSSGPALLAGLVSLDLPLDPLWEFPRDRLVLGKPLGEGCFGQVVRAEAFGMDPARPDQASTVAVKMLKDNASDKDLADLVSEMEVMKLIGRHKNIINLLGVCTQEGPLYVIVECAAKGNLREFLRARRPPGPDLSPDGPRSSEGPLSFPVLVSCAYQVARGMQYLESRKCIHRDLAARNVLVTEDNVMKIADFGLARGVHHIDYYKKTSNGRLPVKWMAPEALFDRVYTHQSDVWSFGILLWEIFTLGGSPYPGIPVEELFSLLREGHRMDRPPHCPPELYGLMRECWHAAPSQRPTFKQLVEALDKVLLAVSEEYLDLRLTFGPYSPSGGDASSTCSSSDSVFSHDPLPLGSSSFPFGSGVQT

[23] = Hepatotoxicity in ICR mouse assessed as change in AST level at 80 mg/kg, po; format: toxicity, organism-based; conditions: in vivo
[24] = Toxicity in BALB/c nude mouse xenografted with rat L6 cells harboring FGFR V561M mutant assessed as change in heart weight at 30 to 60 mg/kg and measured daily for 14 days; format: organism-based; conditions: in vivo, 336 h, dose 30-60 mg/kg, time 14 day
[25] = Toxicity in BALB/c nude mouse xenografted with human NCI-H1581 cells assessed as change in liver weight and measured after 14 days; conditions: 336 h, time 14 day
[26] = biological target: Platelet-derived growth factor receptor beta (Homo sapiens) (UniProt P09619); experiment: Inhibition of PDGFRbeta (unknown origin)
Platelet-derived growth factor receptor beta (Homo sapiens), sequence (P09619 whole entry): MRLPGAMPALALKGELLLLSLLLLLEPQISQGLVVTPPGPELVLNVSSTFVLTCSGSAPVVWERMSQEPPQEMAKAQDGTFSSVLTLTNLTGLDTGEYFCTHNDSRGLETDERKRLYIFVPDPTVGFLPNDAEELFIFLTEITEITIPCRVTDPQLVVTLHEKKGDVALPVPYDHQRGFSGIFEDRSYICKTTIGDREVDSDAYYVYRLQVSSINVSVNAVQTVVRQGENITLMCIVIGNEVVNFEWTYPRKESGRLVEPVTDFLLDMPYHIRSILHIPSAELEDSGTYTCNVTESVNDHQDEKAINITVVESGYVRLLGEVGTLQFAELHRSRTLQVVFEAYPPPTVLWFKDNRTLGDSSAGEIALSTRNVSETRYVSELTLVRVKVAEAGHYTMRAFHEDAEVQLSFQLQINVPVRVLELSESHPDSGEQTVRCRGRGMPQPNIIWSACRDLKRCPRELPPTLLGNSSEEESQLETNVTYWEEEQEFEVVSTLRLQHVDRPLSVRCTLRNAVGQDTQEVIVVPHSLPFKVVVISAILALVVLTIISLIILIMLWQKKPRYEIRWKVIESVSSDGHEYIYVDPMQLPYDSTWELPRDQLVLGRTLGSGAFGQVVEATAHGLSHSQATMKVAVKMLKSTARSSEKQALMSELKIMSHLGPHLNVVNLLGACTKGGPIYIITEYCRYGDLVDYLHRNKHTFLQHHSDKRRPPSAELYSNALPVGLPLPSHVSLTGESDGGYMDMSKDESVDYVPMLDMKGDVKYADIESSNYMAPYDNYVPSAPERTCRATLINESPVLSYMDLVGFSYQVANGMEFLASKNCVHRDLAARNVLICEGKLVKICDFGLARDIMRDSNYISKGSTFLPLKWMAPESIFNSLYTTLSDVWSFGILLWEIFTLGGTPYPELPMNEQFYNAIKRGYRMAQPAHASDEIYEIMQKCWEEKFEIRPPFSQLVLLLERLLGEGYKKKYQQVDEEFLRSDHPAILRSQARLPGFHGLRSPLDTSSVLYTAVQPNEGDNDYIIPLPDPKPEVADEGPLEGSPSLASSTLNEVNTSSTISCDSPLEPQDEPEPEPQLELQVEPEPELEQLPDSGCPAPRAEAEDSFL

[27] = Cmax in male Sprague-Dawley rat at 10 mg/kg, po by UHPLC-MS/MS analysis; format: ADME, organism-based; conditions: in vivo
[28] = Tmax in male Sprague-Dawley rat at 10 mg/kg, po by UHPLC-MS/MS analysis; format: ADME, organism-based; conditions: in vivo
NCI-H1581 [29] = experiment: Inhibition of AKT (unknown origin) phosphorylation in human NCI-H1581 cells at 10 to 40 nM by Western blotting analysis; format: cell-based; conditions: dose 10-40 nM
A549 [30] = experiment: Inhibition of DNA replication in human A549 cells incubated for 1 hrs by EdU staining based analysis; format: functional, cell-based; conditions: dose 10-40 µM
NCI-H1581 [31] = experiment: Inhibition of colony formation in human NCI-H1581 cells at 10 nM incubated for 48 hrs by crystal violet staining based assay; format: functional, cell-based
A549 [32] = experiment: Inhibition of AKT (unknown origin) phosphorylation in human A549 cells at 250 to 1000 nM by Western blotting analysis; format: cell-based; conditions: dose 250-1000 nM
NCI-H1581 [33] = experiment: Inhibition of colony formation in human NCI-H1581 cells incubated for 48 hrs by crystal violet staining based assay; format: functional, cell-based; conditions: dose 10-40 nM
[34] = Toxicity in BALB/c nude mouse xenografted with rat L6 cells harboring FGFR V561M mutant assessed as change in body weight at 30 to 60 mg/kg and measured daily; format: organism-based; conditions: in vivo, dose 30-60 mg/kg
[35] = Cmax in male Sprague-Dawley rat at 2 mg/kg, iv by UHPLC-MS/MS analysis; format: ADME, organism-based; conditions: in vivo
[36] = AUC(0 to infinity) in male Sprague-Dawley rat at 10 mg/kg, po by UHPLC-MS/MS analysis; format: ADME, organism-based; conditions: in vivo
[37] = Toxicity in BALB/c nude mouse xenografted with human NCI-H1581 cells assessed as change in heart weight and measured after 14 days; format: tissue-based; conditions: 336 h, time 14 day

IC50 [10]: 2.2 nM
Activity [11]: Not active; Reduced Affinities Observed
Activity [20]: Not active; Reduced Affinities Observed
IC50 [21]: 29.9 nM
IC50 [22]: 486 nM
Cmax [27]: 2250 ng/mL
Tmax [28]: 30 min
Cmax [35]: 816 ng/mL
AUC(0-inf) [36]: 12900 ng·h/mL
Structure (SMILES): C=CC(=O)Nc1ccc(Nc2nc(Nc3ccc(N4C[C@@H](C)N[C@@H](C)C4)c(OC)c3)ncc2Cl)cc1Cl
inhibition (NCI-H1581 [1]): Active; Greater Inhibition Observed Compared To Infigratinib
inhibition (NCI-H1581 [2]): Dose-dependent-effect
Activity [3]: Non-toxic
Activity [4]: Non-toxic
Activity [5]: Non-toxic
inhibition [6]: Not active; Moderate To Weak Inhibitory Activity Observed
Activity [7]: Non-toxic
inhibition in vivo at 60 mg/kg [8]: 69%
Activity [9]: Non-toxic
Activity (NCI-H1581 [12]): Active
Activity [13]: Non-toxic
Activity [14]: Non-toxic
inhibition (A549 [15]): Active
Activity [16]: Non-toxic
inhibition in vivo at 60 mg/kg (NCI-H1581 [17]): 61%
Activity [18]: Non-toxic
Activity [19]: Non-toxic
Activity [23]: Non-toxic
Activity [24]: Non-toxic
Activity [25]: Non-toxic
inhibition [26]: Not active; Moderate To Weak Inhibitory Activity Observed
inhibition (NCI-H1581 [29]): Active
inhibition (A549 [30]): Dose-dependent-effect
inhibition (NCI-H1581 [31]): Active; Stronger Inhibition Observed
inhibition (A549 [32]): Dose-dependent-effect
inhibition (NCI-H1581 [33]): Dose-dependent-effect
Activity [34]: Non-toxic
Activity [37]: Non-toxic
